According to patent publication US20130102838A1, “Oocyte Spindle-Associated Factors Improve Somatic Cell Cloning” (WORCESTER POLYTECHNIC INSTITUTE, priority 2007, published 2013):

Experiments:
[1] = tested on: Cdc20; assay: Effect of demecolcine on Cdc20 localization in mouse oocytes; format: cell-based; details: 0.4 μg/mL, SrCl2-activated oocytes, throughout development
Experimental: (§1) In order to induce superovulation in donor mice, female CF-1 mice (Charles River Laboratories) of breeding age were injected with Pregnant Mare Serum Gonadotropin (PMSG, Calbiochem) and Human Chorionic Gonadotropin (hCG, Calbiochem). For both hormones, 5IU was administered per mouse via intraperitioneal injection. PMSG was injected 64 hours before collection and hCG was given 48 hours later. Oviducts were dissected from mice euthanized by CO2 asphyxiation and placed in FHM media (Chemicon) at 37° C. Oocytes were separated from surrounding cumulus cells by a brief exposure to bovine hyaluronidase (HA, Sigma, 150 units/ml, <10 minutes). Oocytes with poor morphology (lysed, fragmented, dark pigmentation) were discarded. Oocytes were washed three times in FHM media and randomly sorted into treatment groups. Some oocytes were immediately fixed (see below) at Metaphase of Meiosis II (MII).
(§2) For SrCl2 activation, the denuded oocytes were washed 3 times in FHM, 3 to 4 times in KSOM (without Ca^+2, Chemicon) equilibrated to 37° C. in 5% CO2, and then incubated in KSOM containing 10 mM strontium chloride at 37° C. with 5% CO2. After 15 minutes, some oocytes, depending on experimental design, were transferred to KSOM containing both SrCl2 (10 mM) and demecolcine (0.4 μg/mL) and incubated at 37° C. with 5% CO2. […]

[2] = tested on: Rec8; assay: Effect of demecolcine on Rec8 localization in mouse oocytes; format: cell-based; details: 0.4 μg/mL, SrCl2-activated oocytes
Experimental: as §1, §2

[3] = tested on: Metaphase II oocytes; assay: Induced enucleation of activated Metaphase II oocytes (2nd polar body extrusion); format: cell-based; details: MII oocytes activated with 7% EtOH or 2 μM ionomycin; Taxol 5 μg/mL, cycloheximide 10 μg/mL, demecolcine 0.4 μg/mL; control 3.7%
Experimental: Metaphase II oocytes are activated with 7% EtOH or 2 μM ionomycin, followed by treatment with Taxol (5 μg/mL), or cycloheximide (10 μg/mL) or demecolcine (0.4 μg/mL), resulting in the 2nd polar body extrusion.
With demecoleine-induced enucleation, activated oocytes are treated with the microttibuline destabilizing drug, demecolcine. The resulting cytoplasts are competent to support term developments. Often, cytoplasts fail to complete the second polar body extrusion. Induced enucleation can take place, just prior to activation or just after activation.

[4] = tested on: meiotic spindle; assay: Effect of demecolcine on meiotic spindle and chromatin in activated mouse oocytes; format: cell-based; details: 0.4 μg/mL, SrCl2-activated oocytes
Experimental: as §1, with “(MII). […]” for “(MII).”
(§3) To localize Apc11, a polyclonal antibody raised in rabbits against N-terminal amino acids of human Apc11 (Santa Cruz) was used as a primary antibody. […] Imaging was accomplished on a Zeiss Axiovert 200M inverted fluorescence microscope coupled to a Roper CoolSnapFx camera through a 63× oil emersion objective and 10× eyepiece/camera lens. […]

[5] = tested on: Apc11; assay: Effect of demecolcine on Apc11 spatial localization in mouse oocytes; format: cell-based; details: 0.4 μg/mL, SrCl2-activated oocytes, AII, TII, Interphase
Experimental: as §1, with “(MII). […]” for “(MII).”
as §3

[6] = tested on: mouse oocytes arrested at MII; details: standard ethanol activation protocol, data not shown

CN[C@H]1CCc2cc(OC)c(OC)c(OC)c2-c2ccc(OC)c(=O)cc21 [demecolcine]
Cdc20 staining pattern [1]: low levels of muddled signal across the cytoplasm
Rec8 localization during Anaphase ([2]; Anaphase II): aggregate in an area surrounding the chromatin, but not directly over it
Rec8 localization during Telophase ([2]; Telophase II, continues into Interphase): direct colocalization (purple spots) with the chromatin
induced enucleation, 2nd polar body extrusion [3]: 54%
extrusion of chromatin ([4]; Interphase (FIG. 16)): completely extrudes its chromatin in the second polar body
meiotic spindle integrity ([4]; compared to control eggs): severely disrupted
Apc11 staining pattern [5]: non-distinct ataxia across the entire oocyte with no evidence of colocalization in any stage of development

CCO [ethanol]
eggs per experiment that failed to leave MII [6]: ≤ 50%

C[C@@H]1C[C@@H]([C@H](O)CC2CC(=O)NC(=O)C2)C(=O)[C@@H](C)C1 [cycloheximide]
induced enucleation, 2nd polar body extrusion [3]: 16.3%

CC(=O)O[C@H]1C(=O)[C@@]2(C)[C@H]([C@H](OC(=O)c3ccccc3)[C@]3(O)C[C@H](OC(=O)[C@H](O)[C@@H](NC(=O)c4ccccc4)c4ccccc4)C(C)=C1C3(C)C)[C@]1(OC(C)=O)CO[C@@H]1C[C@@H]2O [Taxol]
induced enucleation, 2nd polar body extrusion [3]: 3.6%
